The source of these data is patent US6608086B2, “Dihydropyridines and new uses thereof” (Synaptic Pharmaceutical Corporation, priority 1993, dated 2003).

Structures can show the parent of a compound that is named as a salt. Where two headings read alike, the source gives them in different places.

Data set [1] deals with T1, α1C Human Adrenergic Receptor (Homo sapiens, UniProt P35348).
T1 construct: The entire coding region of α1C (1401 bp); expressed in transfected cells
T1 sequence (P35348 1-466): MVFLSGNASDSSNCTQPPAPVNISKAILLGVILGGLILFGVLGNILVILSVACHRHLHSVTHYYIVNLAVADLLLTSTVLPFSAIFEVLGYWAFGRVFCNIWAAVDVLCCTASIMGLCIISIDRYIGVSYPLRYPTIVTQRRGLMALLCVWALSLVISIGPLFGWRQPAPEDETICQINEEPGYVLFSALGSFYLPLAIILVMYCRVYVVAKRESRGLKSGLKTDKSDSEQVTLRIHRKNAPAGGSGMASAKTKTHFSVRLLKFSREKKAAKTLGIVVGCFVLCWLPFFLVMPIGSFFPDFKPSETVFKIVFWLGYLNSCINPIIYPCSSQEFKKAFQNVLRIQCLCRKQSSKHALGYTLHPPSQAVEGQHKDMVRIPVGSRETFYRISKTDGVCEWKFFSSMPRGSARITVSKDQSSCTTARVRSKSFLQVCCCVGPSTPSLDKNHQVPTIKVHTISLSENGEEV
In words: Radioligand binding, [3H]prazosin, cloned human α1C adrenergic receptor. On the procedure: (§1) The protocols for these experiments are given below.
(§2) These cell lines were prepared by transfecting the cloned cDNA or cloned genomic DNA or constructs containing both genomic DNA and cDNA encoding the human α-adrenergic receptors as follows:
α1C Human Adrenergic Receptor:
The construct involved ligating three partial overlapping fragments: a 5′, 0.6 kb HincII genomic clone, a central 1.8 EcoRI hippocampal cDNA clone, and a 3′ 0.6Kb PstI genomic clone. The hippocampal cDNA fragment overlaps with the 5′ and 3′ genomic clones so that the HincII and PstI sites at the 5′ and 3′ ends of the cDNA clone, respectively, were utilized for ligation. This full-length clone was cloned into the KpnI site of the expression vector, using the 5′ and 3′ KpnI sites of the fragment, derived from vector (i.e., pBluescript) and 3′-untranslated sequences, respectively. Stable cell lines were selected as described above.
(§3) Radioligand Binding Assays:
(§4) Transfected cells from culture flasks were scraped into 5 ml of 5 mM Tris-HCl, 5 mM EDTA, pH 7.5, and lysed by sonication. The cell lysates were centrifuged at 1000 rpm for 5 min at 4° C., and the supernatant was centrifuged at 30,000× g for 20 min at 4° C. The pellet was suspended in 50 mM Tris-HCl, 1 mM MgCl2, and 0.1% ascorbic acid at pH 7.5. Binding of the α1 antagonist [^3H]prazosin (0.5 nM, specific activity 76.2 Ci/mmol) to membrane preparations of LM(tk−) cells was done in a final volume of 0.25 ml and incubated at 37° C. for 20 min. Nonspecific binding was determined in the presence of 10 μM phentolamine. The reaction was stopped by filtration through GF/B filters using a cell harvester.

Data set [2] deals with T2, α1A Human Adrenergic Receptor (Homo sapiens, UniProt P25100).
T2 construct: The entire coding region of α1A (1719 bp); expressed in transfected cells
T2 sequence (P25100 1-572): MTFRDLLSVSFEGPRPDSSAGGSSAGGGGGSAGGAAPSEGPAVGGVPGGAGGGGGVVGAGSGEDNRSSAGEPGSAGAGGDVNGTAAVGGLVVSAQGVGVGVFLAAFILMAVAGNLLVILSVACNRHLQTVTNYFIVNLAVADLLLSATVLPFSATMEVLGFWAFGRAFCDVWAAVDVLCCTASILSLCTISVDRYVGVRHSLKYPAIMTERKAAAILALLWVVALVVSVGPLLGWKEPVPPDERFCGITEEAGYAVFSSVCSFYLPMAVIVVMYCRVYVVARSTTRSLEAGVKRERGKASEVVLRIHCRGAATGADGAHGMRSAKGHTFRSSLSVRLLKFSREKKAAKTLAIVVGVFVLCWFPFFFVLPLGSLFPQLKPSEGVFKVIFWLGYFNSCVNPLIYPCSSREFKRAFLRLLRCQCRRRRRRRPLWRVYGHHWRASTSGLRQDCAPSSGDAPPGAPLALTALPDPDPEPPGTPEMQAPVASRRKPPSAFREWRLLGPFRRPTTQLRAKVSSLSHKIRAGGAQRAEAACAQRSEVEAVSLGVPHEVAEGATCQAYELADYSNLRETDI
In words: Radioligand binding, [3H]prazosin, cloned human α1A adrenergic receptor. The protocol:
as §1, §2
α1A Human Adrenergic Receptor:
The cells were grown, in a controlled environment (37° C., 5% CO2), as monolayers in Dulbecco's modified Eagle's Medium (GIBCO, Grand Island, N.Y.) containing 25 mM glucose and supplemented with 10% bovine calf serum, 100 units/ml penicillin g, and 100 μg/ml streptomycin sulfate.
as §3, §4

In data set [3] the target is T3, α1B Human Adrenergic Receptor (Homo sapiens, UniProt P35368).
T3 construct: The entire coding region of α1B (1563 bp); expressed in transfected cells
T3 sequence (P35368 1-520): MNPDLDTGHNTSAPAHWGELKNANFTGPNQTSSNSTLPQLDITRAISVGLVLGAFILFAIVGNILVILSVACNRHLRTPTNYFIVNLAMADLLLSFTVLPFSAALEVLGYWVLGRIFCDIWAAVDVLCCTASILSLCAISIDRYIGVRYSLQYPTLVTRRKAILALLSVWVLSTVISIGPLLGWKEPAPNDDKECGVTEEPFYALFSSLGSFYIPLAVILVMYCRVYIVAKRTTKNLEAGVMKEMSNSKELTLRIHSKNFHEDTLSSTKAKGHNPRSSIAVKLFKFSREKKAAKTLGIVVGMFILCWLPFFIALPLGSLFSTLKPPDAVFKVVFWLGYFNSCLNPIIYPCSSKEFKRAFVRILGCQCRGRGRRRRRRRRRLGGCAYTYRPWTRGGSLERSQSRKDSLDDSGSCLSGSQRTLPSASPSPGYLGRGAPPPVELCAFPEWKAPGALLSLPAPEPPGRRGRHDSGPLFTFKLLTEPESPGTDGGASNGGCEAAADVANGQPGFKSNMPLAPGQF
In words: Radioligand binding, [3H]prazosin, cloned human α1B adrenergic receptor. On the procedure: as §1, §2
α1B Human Adrenergic Receptor:
The construct involved ligating the full-length containing EcoRI brainstem cDNA fragment from λ ZapII into the expression vector. Stable cell lines were selected as described above.
as §3, §4

The mark [4] stands for this setting: cloned human α1C receptor, LM(tk−) cell membranes, read-out: pKi alpha-1 1c (converted).
The mark [5] stands for this setting: [3H]prazosin, cloned human α1A receptor, LM(tk−) cell membranes, read-out: pKi alpha-1 1a (converted).
[6] abbreviates: cloned human α1B receptor, LM(tk−) cell membranes, read-out: pKi alpha-1 1b (converted).
Setting [7] is: [3H]prazosin, cloned human receptor, LM(tk-) cell membranes, mean, read-out: PKi alpha-1 1a (converted).
Setting [8] is: cloned human receptor, LM(tk-) cell membranes, mean, read-out: PKi alpha-1 1c (converted).
[9] abbreviates: cloned human receptor, LM(tk-) cell membranes, mean, read-out: PKi alpha-1 1b (converted).

Usually melting point stands for the temperature, or range, at which the solid turns liquid. As for `COC(=O)C1=C(C)NC(C)=C(C(=O)NCCCN2CCCCC2)C1c1ccc([N+](=O)[O-])cc1` (stereo not drawn) (as salt: hydrochloride) (hydrate or solvate) [Example 51, 1,4-Dihydro-3-methoxycarbonyl-2,6-dimethyl-4-(4-nitrophenyl)-5-{N-[3-(piperidin-1-yl)propyl]}carboxamidopyridine hydrochloride etherate], the melting point lay within 150 to 150.5 °C.
For `CCC1=C(C(=O)NCCCN2CCC(c3ccccc3)(c3ccccc3)CC2)C(c2ccc([N+](=O)[O-])cc2)C(C(=O)OC(C)(C)C)=C(COCCN)N1` (stereo not drawn) [Example 140], the Ki in data set [1] (setting [4]) is 7080 nM; in data set [2] (setting [5]) it was 7240 nM; in data set [3] (setting [6]), 14500 nM.
In the case of `COc1cc2c(cc1OC)CN(CCCNC(=O)C1=C(C)NC(C)=C(C(N)=O)C1c1ccc([N+](=O)[O-])cc1)CC2` (stereo not drawn) (as salt: hydrochloride) [Example 58, 5-Carboxamido-1,4-dihydro-3-{N-[3-(1,2,3,4-tetrahydro-6,7-dimethoxyisoquinolin-2-yl)propyl]}carboxamido-2,6-dimethyl-4-(4-nitrophenyl)pyridine hydrochloride], the melting point was 180 to 181 °C.
On to `COC(=O)C1=C(C)NC(C)=C(C(=O)NCCCN2CCc3ccccc3C2)C1c1ccc([N+](=O)[O-])cc1` (stereo not drawn) [Example 59, 1,4-Dihydro-5-{N-[3-(1,2,3,4-tetrahydroisoquinolin-2-yl)propyl]}carboxamido-3-methoxycarbonyl-2,6-dimethyl-4-(4-nitrophenyl)pyridine hydrochloride hydrate], for which the Ki in data set [1] (cloned human receptor in LM(tk-) cell membranes, SEM and n in lines below, read-out: pKi alpha-1 1c (converted)) was 245 nM; in data set [2] ([3H]prazosin, cloned human receptor in LM(tk-) cell membranes, SEM and n in lines below, read-out: pKi alpha-1 1a (converted)) it was 513 nM; in data set [3] (cloned human receptor in LM(tk-) cell membranes, SEM and n in lines below, read-out: pKi alpha-1 1b (converted)), 389 nM.
For `COC(=O)C1=C(C)NC(C)=C(C(=O)NCCCN2CCC(C(=O)OC)(c3ccccc3)CC2)C1c1ccc([N+](=O)[O-])cc1` (stereo not drawn) [Example 206, 1,4-Dihydro-2,6-dimethyl-5-methoxycarbonyl-3-{N-[3-(4-methoxycarbonyl-4-phenylpiperidin-1-yl)propyl]}carboxamido-4-(4-nitrophenyl)pyridine], the Ki in data set [2] (setting [7]) was 1150 nM.
As for `CC1=C(C(=O)OCC[Si](C)(C)C)C(c2ccc([N+](=O)[O-])cc2)C(C(=O)NCCCN2CCC(c3ccccc3)(c3ccccc3)CC2)=C(COCCN=[N+]=[N-])N1` (stereo not drawn) [Example 152, 2-((2-Azidoethyl)oxy)methyl-1,4-dihydro-6-methyl-s-(2-trimethylsilylethoxy)carbonyl-4-(4-nitro)phenyl-3-(N-(3-(4,4-diphenylpiperidin-1-yl)propyl))carboxamidopyridine], the Ki was 933 nM in data set [1] (setting [4]), 490 nM in data set [2] (setting [5]) and 219 nM in data set [3] (setting [6]).
For `CCC1=C(C(=O)O)C(c2ccc([N+](=O)[O-])cc2)C(C(=O)NCCCN2CCC(c3ccccc3)(c3ccccc3)CC2)=C(CC)N1` (stereo not drawn) [Example 130, 2,6-Diethyl-1,4-dihydro-4-(4-nitrophenyl)-5-{N-[3-(4,4-diphenylpiperidin-1-yl)propyl]}carboxamidopyridine-3-carboxylic acid] the same measures were 10.7 nM, 912 nM and 417 nM.
With `CNC(=O)C1=C(C)NC(C)=C(C(=O)NCCCN2CCC(c3ccccc3)(c3ccccc3)CC2)C1c1ccc([N+](=O)[O-])cc1` (single isomer, unassigned; (+)) [(+)-119, 1,4-dihydro-2,6-dimethyl-5-(N-methyl) carboxamido-4-(4-nitrophenyl)-3-{N-[3-(4,4-diphenylpiperidin-1-yl)propyl]} carboxamidopyridine], the values for the Ki in data set [1] (setting [4]), in data set [2] (pKi alpha-1 1a) and in data set [3] (setting [6]) were 380 nM, 1290 nM and 832 nM, respectively.
With `CC1=C(C(N)=O)C(c2ccc([N+](=O)[O-])cc2)C(C(=O)NCCCN2CCC(C#N)(c3ccccc3)CC2)=C(COCCN)N1` (stereo not drawn) [Example 215], the Ki in data set [1] (setting [8]) is 3.63 nM; in data set [2] (setting [7]) it was 3390 nM; in data set [3] (setting [9]), 1260 nM.
Consider `CCC1=C(C(=O)NC)C(c2ccc([N+](=O)[O-])cc2)C(C(=O)NCCCN2CCC(OC)(c3ccccc3)CC2)=C(CC)N1` (stereo not drawn) [Example 108], for which the Ki in data set [1] (setting [4]) was 6.92 nM; in data set [2] (setting [5]), 2950 nM; in data set [3] (setting [6]) it was 4170 nM.
As to `CNC(=O)C1=C(C)NC(C)=C(C(=O)NCCCN2CCC(c3ccccc3)(c3ccccc3)CC2)C1c1ccc([N+](=O)[O-])cc1` (single isomer, unassigned; (-)) [(−)-119, 1,4-dihydro-2,6-dimethyl-5-(N-methyl) carboxamido-4-(4-nitrophenyl)-3-{N-[3-(4,4-diphenylpiperidin-1-yl)propyl]} carboxamidopyridine], the Ki is 2.57 nM in data set [1] (setting [4]), 1170 nM in data set [2] (pKi alpha-1 1a) and 676 nM in data set [3] (setting [6]).
Regarding `CC(=O)C1=C(C)NC(COCCCN)=C(C(=O)NCCCN2CCC(c3ccccc3)(c3ccccc3)CC2)C1c1ccc([N+](=O)[O-])cc1` (stereo not drawn) [Example 236, 5-Acetyl-2-((3-aminopropyl)oxy)methyl-1,4-dihydro-6-methyl-4-(4-nitro)phenyl-3-(N-(3-(4,4-diphenylpiperidin-1-yl)propyl)) carboxamidopyridine], the Ki is 2.51 nM in data set [1] (setting [8]), 347 nM in data set [2] (setting [7]) and 204 nM in data set [3] (setting [9]).
